Where two headings read alike, the source gives them in different places.
Tests used:
[1] = tested on: JNK; settings: Table S1, known target value; no reference given; read-out: Kinase target (IC50) JNK; cited from earlier work
[2] = target: T1, GST-VRK2A (Homo sapiens, UniProt Q86Y07); assay: In vitro kinase assay, GST-VRK2A phosphorylation of histone H3; assay type: biochemical
T1 construct: a full-length protein of 508 aminoacids (known as VRK2 and VRK2A); made in house; host or cells: E. coli BL21
T1 sequence (Q86Y07 whole entry): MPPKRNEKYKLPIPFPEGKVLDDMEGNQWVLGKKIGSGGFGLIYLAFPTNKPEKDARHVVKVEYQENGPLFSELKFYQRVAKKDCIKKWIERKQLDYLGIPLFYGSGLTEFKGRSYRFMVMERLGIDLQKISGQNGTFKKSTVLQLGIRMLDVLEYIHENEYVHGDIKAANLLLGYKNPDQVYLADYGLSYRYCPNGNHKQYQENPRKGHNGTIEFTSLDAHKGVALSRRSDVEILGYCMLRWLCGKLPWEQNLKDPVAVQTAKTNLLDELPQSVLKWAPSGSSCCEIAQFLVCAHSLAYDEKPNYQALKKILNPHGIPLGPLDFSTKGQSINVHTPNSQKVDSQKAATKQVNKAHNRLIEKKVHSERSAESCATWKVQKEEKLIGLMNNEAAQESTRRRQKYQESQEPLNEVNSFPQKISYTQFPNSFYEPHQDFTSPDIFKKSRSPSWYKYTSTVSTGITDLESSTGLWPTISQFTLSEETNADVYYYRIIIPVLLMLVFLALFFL

[3] = target: T2, GST-VRK1 (Homo sapiens, UniProt Q99986); assay: In vitro kinase assay, GST-VRK1 phosphorylation of histone H3; assay type: biochemical; settings: 5 µM ATP; average of three experiments, ± standard deviation; No inhibition is lack of effect at 100 µM
T2 construct: made in house
T2 sequence (Q99986 1-396): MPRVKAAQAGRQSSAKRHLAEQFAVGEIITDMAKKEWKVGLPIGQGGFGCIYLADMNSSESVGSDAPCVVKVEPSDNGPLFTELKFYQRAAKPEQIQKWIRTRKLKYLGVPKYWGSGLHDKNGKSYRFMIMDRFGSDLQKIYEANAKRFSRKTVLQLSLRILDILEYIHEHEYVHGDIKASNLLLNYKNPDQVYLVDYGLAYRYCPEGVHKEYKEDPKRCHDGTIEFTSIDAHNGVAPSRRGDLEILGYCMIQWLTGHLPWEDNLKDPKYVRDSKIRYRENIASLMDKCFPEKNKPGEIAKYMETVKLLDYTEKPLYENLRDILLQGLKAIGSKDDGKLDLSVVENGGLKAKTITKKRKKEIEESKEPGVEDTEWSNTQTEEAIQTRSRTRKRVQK

[4] = target: T3, human VRK1 (Homo sapiens, UniProt Q99986); assay: In vitro kinase assay, VRK1 kinase activity (autophosphorylation and H3 phosphorylation); assay type: biochemical
T3 construct: made in house
T3 sequence (Q99986 1-396): T2 sequence (Q99986 1-396)

[5] = target: T4, VRK2A (Homo sapiens, UniProt Q86Y07); assay: In vitro kinase assay, VRK2A kinase activity (autophosphorylation and H3 phosphorylation); assay type: biochemical
T4 construct: a full-length protein of 508 aminoacids (known as VRK2 and VRK2A); made in house; host or cells: E. coli BL21
T4 sequence (Q86Y07 whole entry): as the sequence (Q86Y07 whole entry) above

[6] = target: T2, GST-VRK1; assay: In vitro kinase assay, GST-VRK1 autophosphorylation; assay type: biochemical; settings: 5 µM ATP; average of three experiments, ± standard deviation; No inhibition is lack of effect at 100 µM
[7] = target: T1, GST-VRK2A; assay: In vitro kinase assay, GST-VRK2A autophosphorylation; assay type: biochemical; settings: for IC50: read-out: IC50 (µM) GST-VRK2A Auto-phosphorylation
[8] = tested on: CDK; settings: read-out: Kinase target (IC50) CDK; Table S1, known target value; no reference given; cited from earlier work
[9] = tested on: GSK-3β; settings: Table S1, known target value; no reference given; read-out: Kinase target (IC50) GSK3β; cited from earlier work
[10] = tested on: B-Raf; settings: Table S1, known target value; no reference given; read-out: Kinase target (IC50) B-Raf; cited from earlier work
[11] = tested on: B-RafV600E; settings: Table S1, known target value; no reference given; read-out: Kinase target (IC50) B-RafV600E; cited from earlier work
[12] = tested on: Cdk1/cyclinB; settings: read-out: Fifty percent inhibition of Cdk1/cyclinB; cited from earlier work
[13] = tested on: Cdk1; settings: Table S1, known target value; no reference given; read-out: Kinase target (IC50) Cdk1; cited from earlier work
[14] = target: T5, VRK2B (Homo sapiens, UniProt Q86Y07); assay: In vitro kinase assay, VRK2B kinase activity; assay type: biochemical; settings: inhibitor 100 µM, 5 µM ATP
T5 construct: made in house; host or cells: E. coli BL21
T5 sequence (Q86Y07 1-397 isoform Q86Y07-2): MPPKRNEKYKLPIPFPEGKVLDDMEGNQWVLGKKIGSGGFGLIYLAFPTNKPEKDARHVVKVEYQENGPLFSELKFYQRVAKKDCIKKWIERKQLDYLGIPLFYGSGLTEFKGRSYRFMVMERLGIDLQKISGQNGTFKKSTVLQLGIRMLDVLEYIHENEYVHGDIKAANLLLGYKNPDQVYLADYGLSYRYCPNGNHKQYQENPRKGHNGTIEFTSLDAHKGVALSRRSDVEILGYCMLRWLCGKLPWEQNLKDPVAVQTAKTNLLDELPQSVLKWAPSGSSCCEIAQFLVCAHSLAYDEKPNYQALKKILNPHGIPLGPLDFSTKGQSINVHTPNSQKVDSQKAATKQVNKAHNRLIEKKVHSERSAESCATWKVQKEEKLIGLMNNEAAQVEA

[15] = target: Aurora C kinase; settings: Table S1, known target value; no reference given; cited from earlier work
[16] = inhibitor 100 µM, 5 µM ATP, autophosphorylation and H3 phosphorylation
[17] = 5 µM ATP, average of three experiments, ± standard deviation, No inhibition is lack of effect at 100 µM

| IC50 [2] | IC50 (µM) GST-VRK1 H3 phosphorylation [3] | IC50 (µM) GST-VRK1 Auto- phosphorylation [6] | IC50 [7] | Compound | Effect on VRK1 kinase activity at 100 µM inhibitor (in words) [4, 16] | Effect on VRK2 (VRK2A) kinase activity at 100 µM inhibitor (in words) [5, 16] | other results |
| --- | --- | --- | --- | --- | --- | --- | --- |
| 11.1 ± 1.21 µM | No inhibition | No inhibition | 27.6 ± 1.09 µM | Oc1c2ccccc2c2c3c(cccc13)N=N2 [SP600125, Anthra[1,9-cd]pyrazol-6(2H)-one, 1,9-pyrazoloanthrone] | None of them was able to induce a significant inhibition | None of them was able to induce a significant inhibition | IC50 [1]: 0.04 µM |
| – | – | – | – | Indirubin-3’-monoxime | – | – | IC50 [8]: 0.05 to 0.1 µM; Effect on VRK1 kinase activity at 100 µM inhibitor (in words) [4]: little effect; Effect on VRK2 (VRK2A) kinase activity at 100 µM inhibitor (in words) [5]: little effect; IC50 [9]: 0.005 to 0.05 µM |
| – | No inhibition | No inhibition | – | OCCn1cc(-c2ccc3c(c2)CCC3=NO)c(-c2ccncc2)n1 [GDC-0879, 5-[1-(2-Hydroxy-ethyl)-3-pyridin-4-yl-1H-pyrazol-4-yl]-indan-1-one oxime] | None of them was able to induce a significant inhibition | None of them was able to induce a significant inhibition | IC50 [11]: 0.00013 µM |
| 10.8 ± 1.29 µM | No inhibition | No inhibition | 11.2 ± 1.33 µM | O=C1Nc2ccccc2C1=Cc1c(Cl)[nH]c2ccccc12 [Cdk1 Inhibitor, 3-(2-Chloro-3-indolylmethylene)-1,3-dihydroindol-2-one] | – | more sensitive | IC50 [12]: 5.8 µM; IC50 ([5]; 5 µM ATP, H3 phosphorylation or autophosphorylation, read-out: Concentration giving fifty percent inhibition of VRK2A activity): 4 µM; IC50 [13]: 5.8 µM |
| – | No inhibition | No inhibition | – | Cc1cc(Nc2cc(N3CCN(C)CC3)nc(Sc3ccc(NC(=O)C4CC4)cc3)n2)[nH]n1 [VX-680, N-[4-[4-(4-Methylpiperazin-1-yl)-6-(3-methyl-1H-pyrazol-5-ylamino)pyrimidin-2-sulfanyl]phenyl]-cyclopropanecarboxamide] | without noticeable inhibitory effect | without noticeable inhibitory effect | Effect on VRK2B kinase activity at 100 µM inhibitor (in words) [14]: without noticeable inhibitory effect; IC50 [15]: […] |

| Compound | IC50 [2] | IC50 (µM) GST-VRK1 H3 phosphorylation [3] | IC50 (µM) GST-VRK1 Auto- phosphorylation [6] | IC50 [7] | Effect on VRK1 kinase activity at 100 µM inhibitor (in words) [4, 16] | Effect on VRK2 (VRK2A) kinase activity at 100 µM inhibitor (in words) [5, 16] | other results |
| --- | --- | --- | --- | --- | --- | --- | --- |
| CCCS(=O)(=O)Nc1ccc(F)c(C(=O)c2c[nH]c3ncc(Cl)cc23)c1F [PLX-4720, N-(3-(5-chloro-1H-pyrrolo[2,3-b]pyridine-3-carbonyl)-2,4-difluorophenyl)propane-1-sulfonamide] | – | No inhibition | No inhibition | – | None of them was able to induce a significant inhibition | None of them was able to induce a significant inhibition | IC50 (µM) GST-VRK2A H3 phosphorylation [2, 17]: No inhibition; IC50 [10]: […]; IC50 (µM) GST-VRK2A Auto-phosphorylation [7, 17]: No inhibition |
